US10526316B2, “Quinoxaline and pyridopyrazine derivatives as PI3Kβ inhibitors” (Janssen Pharmaceutica NV, priority 2015, dated 2020)
Where two headings read alike, the source gives them in different places.

Columns and labels:
[1] = tested on: Akt phosphorylated at Thr308 in PC-3 cells; experiment: Cellular assay: phosphorylation of Akt at Thr308 in PC-3 cells (MSD ELISA); assay type: cell-based; conditions: read-out: IC50 pAkt_Thr308
Method in brief: (§1)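 Electrochemiluminescent sandwich ELISA read-out: phospho-specific capture (Ser473 or Thr308), Sulfo-tag anti-total Akt detection, signal proportional to phospho-Akt. Cells treated 60 min at 37° C with compound, DMSO 0.3%. IC50 fitted from five concentrations.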

[2] = tested on: Akt phosphorylated at Ser473 in PC-3 cells; experiment: Cellular assay: phosphorylation of Akt at Ser473 in PC-3 cells (MSD ELISA); assay type: cell-based; conditions: read-out: IC50 pAkt_S473
Method in brief: as §1

kinase enzymes [3] = biological target: T1, kinase enzymes (Homo sapiens, UniProt P48736); experiment: Enzyme binding assay (KINOMEscan, DiscoveRx), further kinases of Table A; conditions: PIK3Cγ_h
T1 construct: purchased DiscoveRx Corporation, San Diego (contract service, KINOMEscan)
Method in brief: (§2)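 Compounds were profiled by KINOMEscan to obtain kinase binding affinities.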

kinase enzymes [4] = biological target: T2, kinase enzymes (Homo sapiens, UniProt P42336); experiment: as above; conditions: PIK3Cα_h
T2 construct: purchased DiscoveRx Corporation, San Diego (contract service, KINOMEscan)
Method in brief: as §2

kinase enzymes [5] = biological target: T3, kinase enzymes (Homo sapiens, UniProt P42345); experiment: as above; conditions: MTOR_h
T3 construct: purchased DiscoveRx Corporation, San Diego (contract service, KINOMEscan)
Method in brief: as §2

PI3Kδ = biological target: T4, PI3Kδ (Homo sapiens, UniProt O00329); experiment: Enzyme binding assay (KINOMEscan, DiscoveRx); conditions: PIK3Cδ_h
T4 construct: purchased DiscoveRx Corporation, San Diego (contract service, KINOMEscan)
T4 sequence (O00329 1-1044): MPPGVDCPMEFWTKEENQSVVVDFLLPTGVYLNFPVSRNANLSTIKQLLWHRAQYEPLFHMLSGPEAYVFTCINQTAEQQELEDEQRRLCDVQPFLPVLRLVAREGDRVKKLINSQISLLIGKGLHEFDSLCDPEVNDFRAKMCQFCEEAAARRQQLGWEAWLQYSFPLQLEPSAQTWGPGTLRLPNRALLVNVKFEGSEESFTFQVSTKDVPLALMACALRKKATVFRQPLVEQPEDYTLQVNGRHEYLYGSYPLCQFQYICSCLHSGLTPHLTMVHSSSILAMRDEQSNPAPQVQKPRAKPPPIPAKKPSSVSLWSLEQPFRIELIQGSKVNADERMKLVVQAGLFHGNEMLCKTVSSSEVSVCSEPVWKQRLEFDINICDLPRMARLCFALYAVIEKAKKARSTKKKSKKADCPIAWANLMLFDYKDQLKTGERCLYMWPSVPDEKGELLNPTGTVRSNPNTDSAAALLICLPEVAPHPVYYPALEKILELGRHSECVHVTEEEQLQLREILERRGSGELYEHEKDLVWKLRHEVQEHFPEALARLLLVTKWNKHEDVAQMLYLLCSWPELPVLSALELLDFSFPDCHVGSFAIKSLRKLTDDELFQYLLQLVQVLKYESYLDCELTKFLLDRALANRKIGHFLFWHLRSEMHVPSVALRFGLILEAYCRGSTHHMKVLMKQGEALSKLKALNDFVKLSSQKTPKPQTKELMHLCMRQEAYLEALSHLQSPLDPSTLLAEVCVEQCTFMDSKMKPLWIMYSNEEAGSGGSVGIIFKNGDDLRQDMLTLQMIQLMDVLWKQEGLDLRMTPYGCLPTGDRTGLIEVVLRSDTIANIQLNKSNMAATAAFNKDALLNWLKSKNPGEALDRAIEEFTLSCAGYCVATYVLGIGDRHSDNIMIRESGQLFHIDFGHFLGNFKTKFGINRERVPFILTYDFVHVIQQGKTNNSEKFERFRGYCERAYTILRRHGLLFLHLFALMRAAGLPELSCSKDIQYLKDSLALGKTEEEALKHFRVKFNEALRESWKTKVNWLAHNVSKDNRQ
Method in brief: as §2

PI3Kβ = biological target: T5, PI3Kβ (Homo sapiens, UniProt P42338); experiment: Enzyme binding assay (KINOMEscan, DiscoveRx); conditions: PIK3Cβ_h, read-out: Kd PIK3Cβ_h
T5 construct: purchased DiscoveRx Corporation, San Diego (contract service, KINOMEscan)
Method in brief: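 Compounds are profiled for binding to the kinase using KINOMEscan. The affinity is then reported as an inhibitor Kd in nanomolar units.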

[6] = Homo sapiens, PC-3, 1 h, PC-3 cells, 60 min compound incubation, MSD ELISA
[7] = PC-3 cells, 60 min compound incubation, MSD ELISA

T2 sequence (P42336 whole entry): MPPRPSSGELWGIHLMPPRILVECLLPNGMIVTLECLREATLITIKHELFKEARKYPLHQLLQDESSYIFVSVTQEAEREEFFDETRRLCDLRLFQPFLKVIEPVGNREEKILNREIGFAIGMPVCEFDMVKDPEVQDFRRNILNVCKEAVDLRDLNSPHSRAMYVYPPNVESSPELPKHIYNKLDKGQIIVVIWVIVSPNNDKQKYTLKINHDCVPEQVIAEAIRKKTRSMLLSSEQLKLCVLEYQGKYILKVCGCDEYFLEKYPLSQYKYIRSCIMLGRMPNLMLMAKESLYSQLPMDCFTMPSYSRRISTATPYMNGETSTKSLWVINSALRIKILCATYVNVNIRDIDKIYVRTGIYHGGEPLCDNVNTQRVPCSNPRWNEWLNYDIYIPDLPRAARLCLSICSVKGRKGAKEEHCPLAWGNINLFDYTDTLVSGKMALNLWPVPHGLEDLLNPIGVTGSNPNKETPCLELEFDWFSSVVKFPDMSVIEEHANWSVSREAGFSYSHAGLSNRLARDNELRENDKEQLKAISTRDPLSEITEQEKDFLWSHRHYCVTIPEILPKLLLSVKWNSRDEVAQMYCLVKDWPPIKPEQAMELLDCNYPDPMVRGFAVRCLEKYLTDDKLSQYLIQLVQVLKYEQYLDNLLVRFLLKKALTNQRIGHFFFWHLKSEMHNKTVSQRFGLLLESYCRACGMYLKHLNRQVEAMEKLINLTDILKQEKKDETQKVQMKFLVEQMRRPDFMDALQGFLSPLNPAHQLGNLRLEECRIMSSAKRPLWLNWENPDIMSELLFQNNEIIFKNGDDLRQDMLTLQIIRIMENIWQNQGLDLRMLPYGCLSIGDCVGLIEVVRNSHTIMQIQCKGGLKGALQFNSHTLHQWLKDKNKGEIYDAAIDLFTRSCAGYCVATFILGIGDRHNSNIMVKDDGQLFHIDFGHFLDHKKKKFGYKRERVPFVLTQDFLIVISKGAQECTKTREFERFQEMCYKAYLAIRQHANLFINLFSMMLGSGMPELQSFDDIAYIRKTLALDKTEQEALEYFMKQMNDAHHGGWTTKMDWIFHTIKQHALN
T5 sequence (P42338 whole entry): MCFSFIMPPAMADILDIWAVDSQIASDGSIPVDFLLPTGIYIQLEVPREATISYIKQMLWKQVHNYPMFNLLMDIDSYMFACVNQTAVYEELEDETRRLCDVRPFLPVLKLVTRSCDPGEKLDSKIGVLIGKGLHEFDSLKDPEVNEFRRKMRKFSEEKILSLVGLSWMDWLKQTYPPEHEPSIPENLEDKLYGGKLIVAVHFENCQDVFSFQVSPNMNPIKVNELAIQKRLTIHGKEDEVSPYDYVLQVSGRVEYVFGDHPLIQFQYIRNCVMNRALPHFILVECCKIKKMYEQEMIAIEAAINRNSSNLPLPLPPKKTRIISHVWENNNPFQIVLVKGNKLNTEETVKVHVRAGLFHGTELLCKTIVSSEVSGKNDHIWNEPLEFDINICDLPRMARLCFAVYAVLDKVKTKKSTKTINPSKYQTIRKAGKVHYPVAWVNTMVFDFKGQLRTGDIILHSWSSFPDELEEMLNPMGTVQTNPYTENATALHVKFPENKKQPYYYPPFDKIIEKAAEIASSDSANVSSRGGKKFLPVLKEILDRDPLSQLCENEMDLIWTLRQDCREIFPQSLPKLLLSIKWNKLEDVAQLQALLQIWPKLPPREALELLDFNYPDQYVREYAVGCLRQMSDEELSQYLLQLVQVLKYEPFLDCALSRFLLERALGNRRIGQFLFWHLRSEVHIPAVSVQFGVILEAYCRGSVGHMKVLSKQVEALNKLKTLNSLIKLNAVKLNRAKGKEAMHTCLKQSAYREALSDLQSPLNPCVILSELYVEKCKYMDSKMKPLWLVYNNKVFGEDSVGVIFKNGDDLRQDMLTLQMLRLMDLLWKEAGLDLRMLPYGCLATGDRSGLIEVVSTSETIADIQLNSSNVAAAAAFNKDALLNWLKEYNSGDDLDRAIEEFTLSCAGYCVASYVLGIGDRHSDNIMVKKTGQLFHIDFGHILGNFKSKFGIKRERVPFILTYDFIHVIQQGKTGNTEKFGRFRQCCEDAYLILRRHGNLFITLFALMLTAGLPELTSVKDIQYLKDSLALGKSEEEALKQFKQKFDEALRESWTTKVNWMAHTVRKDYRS
T1 sequence (P48736 whole entry): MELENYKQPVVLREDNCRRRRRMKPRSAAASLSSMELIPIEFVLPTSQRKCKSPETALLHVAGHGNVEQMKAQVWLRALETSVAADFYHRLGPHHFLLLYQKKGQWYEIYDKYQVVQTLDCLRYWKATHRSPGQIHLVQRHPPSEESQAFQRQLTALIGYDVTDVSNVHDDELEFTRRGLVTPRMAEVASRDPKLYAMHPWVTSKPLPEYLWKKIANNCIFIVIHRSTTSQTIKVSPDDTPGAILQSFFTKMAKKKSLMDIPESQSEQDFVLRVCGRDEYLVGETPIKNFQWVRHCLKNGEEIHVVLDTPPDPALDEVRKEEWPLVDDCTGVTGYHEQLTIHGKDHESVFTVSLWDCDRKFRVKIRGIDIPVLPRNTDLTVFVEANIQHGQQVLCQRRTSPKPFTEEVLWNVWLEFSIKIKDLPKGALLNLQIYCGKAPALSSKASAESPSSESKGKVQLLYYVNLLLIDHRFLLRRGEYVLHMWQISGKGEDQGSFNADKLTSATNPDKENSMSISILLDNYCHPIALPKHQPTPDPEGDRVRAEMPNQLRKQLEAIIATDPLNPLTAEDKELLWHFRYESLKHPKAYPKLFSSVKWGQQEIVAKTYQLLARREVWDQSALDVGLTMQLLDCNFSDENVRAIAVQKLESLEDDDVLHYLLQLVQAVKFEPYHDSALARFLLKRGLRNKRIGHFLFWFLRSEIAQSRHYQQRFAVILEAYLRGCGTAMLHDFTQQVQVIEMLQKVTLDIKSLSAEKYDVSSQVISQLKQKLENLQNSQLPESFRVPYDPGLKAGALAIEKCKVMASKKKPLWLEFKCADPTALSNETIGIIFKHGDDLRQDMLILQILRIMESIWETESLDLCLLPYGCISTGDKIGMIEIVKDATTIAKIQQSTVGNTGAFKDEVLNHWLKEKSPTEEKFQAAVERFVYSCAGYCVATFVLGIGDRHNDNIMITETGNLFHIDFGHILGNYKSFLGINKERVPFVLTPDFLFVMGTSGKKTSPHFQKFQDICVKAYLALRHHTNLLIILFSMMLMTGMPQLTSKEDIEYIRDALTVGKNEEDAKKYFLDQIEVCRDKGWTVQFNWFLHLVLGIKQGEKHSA

SMILES	IC50 [1, 6] [nM]	IC50 [2, 6] [nM]	Kd (kinase enzymes [3]) [µM]	Kd (kinase enzymes [4]) [µM]	Kd (kinase enzymes [5]) [µM]	Kd (PI3Kδ) [nM]	melting point [°C]	Kd (PI3Kβ) [nM]	IC50 [1, 7] [nM]	IC50 [2, 7] [nM]	IC50 ([1]; Homo sapiens, PC-3, 1 h) [nM]	IC50 ([2]; Homo sapiens, PC-3, 1 h) [nM]
CC(Nc1cc(F)cc(F)c1)c1cc(C=NO)cc2ncc(N3CCOCC3)nc12 (single isomer, unassigned) [Compound 225]	87	102	2.51	4.68	> 30.2	537	80	6	–	–	–	–
CN[C@@H]1CCN(C(=O)c2cc(C(C)Nc3ccc(F)c(F)c3)c3nc(N4CCOCC4)cnc3c2)C1 (single isomer, unassigned) [Compound 371a]	–	–	1.05	1.51	> 30.2	83	114	0.3	2	10	–	–
COCCNC(=O)c1cc(C(C)Nc2cc(F)cc(F)c2)c2nc(N3CCOCC3)cnc2c1 (single isomer, unassigned) [Compound 204]	–	–	14.5	> 30.2	> 30.2	> 30200	80	1070	> 513	> 513	–	–
Cc1c(F)cccc1NCc1cc(C(=O)NCCN(C)C)cc2ncc(N3CCOCC3)nc12 [Compound 328]	9	9	–	–	–	–	98	–	–	–	–	–
CNCCNC(=O)c1cc(NCc2cc(F)cc(F)c2)c2nc(N3CCOCC3)cnc2c1 [Compound 340]	50	76	5.01	1.51	12	372	180	2	–	–	–	–
CC(Nc1cc(F)c(F)c(F)c1)c1cc(C(=O)NCCO)cc2ncc(N3CCOCC3)nc12 (single isomer, unassigned) [Compound 213]	–	–	3.24	2.09	7.76	269	80	2	25	33	–	–
CC(Nc1cc(F)cc(F)c1)c1cc(C(=O)N2CCN(CC(F)(F)F)CC2)cc2ncc(N3CCOCC3)nc12 (single isomer, unassigned) [Compound 172]	> 513	> 513	> 30.2	> 30.2	> 30.2	> 30200	130	1260	–	–	–	–
C[C@H](Nc1cccc(F)c1)c1cc(C(=O)NCCO)cc2ncc(N3CCOCC3)nc12 [Compound 118]	> 513	> 513	2.85	14.2	–	10200	237	204	–	–	–	–
CC(Nc1cccc(F)c1)c1cc(C(=O)N2CCC[C@H]2CO)cc2ncc(N3CCOCC3)nc12 (single isomer, unassigned) [Compound 115]	–	–	–	1.66	> 30.2	324	327	2	31	66	–	–
CC(c1cc(CO)cc2ncc(N3CCOCC3)nc12)N(C)c1cccc(F)c1 (stereo not shown) [Compound 111]	162	389	1.48	6.03	–	1820	80	16	–	–	–	–
CC(Nc1cc(F)cc(F)c1)c1cc(C(=O)NCCN(C)C)cc2ncc(N3CCOCC3)nc12 (stereo not shown) [Compound 183]	3	6	1.74	2.51	–	–	145	0.1	–	–	–	–
CCOC(=O)CNC(=O)c1cc(C(C)Nc2cccc(F)c2)c2nc(N3CCOCC3)cnc2c1 (stereo not shown) [Compound 392a]	–	–	14.1	3.98	20.4	2820	80	21	–	–	–	–
Cc1ccc(NC(C)c2cc(C(=O)NCCN(C)C)cc3ncc(N4CCOCC4)nc23)cc1F (single isomer, unassigned) [Compound 407a]	–	–	7.94	2.04	10.5	724	115	7	–	–	–	–
CC(Nc1cc(F)cc(F)c1)c1cc(C(=O)NC[C@H](C)O)cc2ncc(N3CCOCC3)nc12 (single isomer, unassigned) [Compound 246b]	–	–	6.17	> 30.2	> 30.2	> 30200	75	16600	–	–	–	–
COC(=O)c1cc(C(C)Nc2cccc(F)c2)c2nc(N3CCOCC3)cnc2c1 (single isomer, unassigned) [Compound 262a]	–	–	> 30.2	> 30.2	> 30.2	24500	199.7	1780	–	–	–	–
[2H]C([2H])(O)C([2H])([2H])NC(=O)c1cc(C(C)Nc2cccc(F)c2)c2nc(N3CCOCC3)cnc2c1 (single isomer, unassigned) [Compound 408a]	–	–	4.27	1.44	26.3	331	127	3	–	–	–	–
CC(Nc1cccc(F)c1)c1cc(C(=O)N2CC[C@@H](O)C2)cc2ncc(N3CCOCC3)nc12 (single isomer, unassigned) [Compound 321b]	–	–	> 30.2	18.6	> 30.2	7410	128	166	–	–	–	–
C[C@H](Nc1cc(F)cc(F)c1)c1cc(C(=O)NCCN(C)C)cc2ncc(N3CCOCC3)nc12 [Compound 185]	148	~331	4.27	5.75	–	–	152	29	–	–	–	–
CNCCN(C)C(=O)c1cc(C2CCCN2c2cc(F)cc(F)c2)c2nc(N3CCOCC3)cnc2c1 (stereo not shown) [Compound 18]	–	–	–	–	–	1	80	0.1	–	–	0.3	1
CC(C)NCCNC(=O)c1cc(C(C)Nc2cc(F)c(F)c(F)c2)c2nc(N3CCOCC3)cnc2c1 (single isomer, unassigned) [Compound 283b]	–	–	29.5	> 30.2	> 30.2	18200	170	1380	–	–	–	–
C[C@@H](Nc1cc(F)cc(F)c1)c1cc(C(=O)NCCN(C)C)cc2ncc(N3CCOCC3)nc12 [Compound 184]	2	2	0.994	0.599	18.9	–	157	0.2	–	–	–	–
CN(C)C(=O)c1cc(C2CCCN2c2cc(F)cc(F)c2)c2nc(N3CCOCC3)cnc2c1 (stereo not shown) [Compound 26]	~1.35	4	1.32	0.174	–	117	80	2	–	–	–	–
COC(=O)c1cc(C(C)Nc2ccc(C)c(F)c2)c2nc(N3CCOCC3)cnc2c1 (stereo not shown) [Compound 293]	–	–	> 30.2	> 30.2	> 30.2	> 30200	186	> 30200	–	–	–	–
CC(Oc1cc(F)cc(F)c1)c1cc(C(=O)NCCO)cc2ncc(N3CCOCC3)nc12 (single isomer, unassigned) [Compound 200]	–	–	> 30.2	> 30.2	> 30.2	> 30200	115	2400	–	–	–	–
